Results: patent publication US20220280513A1, “ENHANCING THE ANTIVIRAL EFFICACY OF RNA VIRUS INHIBITION BY COMBINATION WITH MODULATORS OF PYRIMIDINE METABOLISM” (The Board of Trustees of the Leland Stanford Junior …, priority 2019, published 2022)

Tests used:
[1] = system: intracellular uridine and cytidine nucleotide levels; assay: LC-MS/MS analysis of intracellular nucleotides in A549 cells; assay type: cell-based; settings: 250 μM with 1 μM GSK983, 5 μM uridine, 6 h
Protocol: FIG. 7. LC-MS analysis of intracellular nucleotides. (A) LC-MS analysis of intracellular uridine and cytidine nucleotide levels after 6 h treatments. In all assays, the culture medium was supplemented with 5 μM uridine and 1 μM GSK983. Error bars represent ±S.D. of two replicates. (B) LC-MS detection of mono-, di- and tri-phosphates of CPU and 5-F-CPU in cells. LC-MS/MS was performed on an Agilent 1290 infinity II LC system tandem with 6370 triple quad mass spectrometer using ion pairing chromatography. LC separation was performed at 40° C. with a solvent flow rate of 0.25 mL/min on a Zorbax RRHD Extended-C18 column (2.1×150 mm, 1.8 μM). Buffer A contained 97% H2O, 3% MeOH, 5 mM tributylamine, 5.5 mM Acetic acid and 1 μM medronic acid with pH=5.0; Buffer B contains ca. 100% MeOH, 5 mM tributylamine, 5.5 mM Acetic acid and 5 μM medronic acid with pH=7.0 The initial mobile phase composition was 100% solvent A, and a constant or linear gradient was applied after sample injection with eluent B varying as follows: 0% at 2.5 min, 20% at 7.5 min, 45% at 14 min, 99% at 20 to 23 min, and 0% from 23.1 to 27.1 min. […] Samples were measured in the negative ESI mode with capillary voltage at −3.5 kV. […]
With optimized sampling and detection method in hand, pyrimidine nucleotide levels were measured in cells cultured with either 250 μM CPU, 5-F-CPU or 5′-F-CPU in combination with 1 μM GSK983 (FIG. 7A). […]

DENV-2 virus = assay: DENV antiviral assay, DENV-Luc replication in A549 cells (FIGS. 8 and 9); assay type: cell-based, dengue serotype 2 (DENV-2) strain 16681
Protocol: DENV-Luc reporter virus generation: The design of the pDENV-Luc infectious clone derived from dengue serotype 2 (DENV-2) strain 16681 was described in detail by Marceau et al (Marceau et al., 2016). The plasmid was linearized with Xbal and in vitro transcribed into the genomic RNA of DENV-Luc virus using the T7 Megascript Kit (Ambion) in the presence of m7G(5′)ppp(5′)G RNA Cap Structure Analog (NEB). 5 μg DENV-Luc RNA was electroporated into 2×10^6 Vero cells. The transfected cells were resuspended with Dulbecco's modified Eagle's medium (DMEM; Invitrogen) with 10% FBS and 100 U/ml penicillin-streptomycin and transferred into a T-175 flask incubated at 37° C. with 5% CO2. Supernatants were collected and replenished with fresh medium every 24 h from day 17 to 24 post-transfection, pooled together, clarified by centrifugation and stored in aliquots at −80° C. The amount of infectious DENV-Luc virus in the stock was titrated using the TCID50 assay and calculated by the Spearman & Kärber algorithm as described previously (Hierholzer and Killington, 1996).
DENV antiviral assays (For FIGS. 8 and 9): A549 cells were plated overnight at 5,000 cells/well in 96-well plates in complete DMEM and incubated for 24 h at 37° C. Cells were then treated with pyrimidine de novo synthesis inhibitors, and/or salvage inhibitors, and/or R1479 in DMEM supplemented with 20 μM uridine. Four hours after drug addition, cells were infected with DENV-2 virus at a MOI=0.1. After 72 h, DENV-Luc replication was monitored by the production of Renilla luciferase, which was measured using the Renilla-Glo Luciferase Assay System (Promega) according to the specifications of the manufacturer. For the accompanying cell viability assay, A549 cells were seeded at 5,000 cells/well in 96-well plates in complete DMEM and incubated for 24 h at 37° C. Cell were then treated with pyrimidine de novo synthesis inhibitors, and/or salvage inhibitors, and/or R1479 in DMEM supplemented with 20 μM uridine. Following 48 h treatment, cell viability was monitored by ATP levels, which was measured using the CellTiter-Glo Luciferase Assay System (Promega) according to the specifications of the manufacturer.

SMILES: O=c1ccn([C@@H]2C=C(CO)[C@@H](O)[C@H]2O)c(=O)[nH]1 [CPU, 1-((1R,4R,5S)-4,5-dihydroxy-3-(hydroxymethyl)cyclopent-2-en-1-yl)pyrimidine-2,4(1H,3H)-dione]
- depletion of UTP and CTP concentrations [1]: more strongly than 5-F-CPU
- dengue virus replication, combination (DENV-2 virus; CPU (500 μM) combined with 1 μM GSK983, 20 μM uridine): suppressed dengue virus
- antiviral activity as single agent (DENV-2 virus; single agents, 20 μM uridine): neither GSK983 nor CPU were effective
